# Reference: patent US9018206B2, “Carboxamide compounds and their use as calpain inhibitors” (AbbVie Deutschland GmbH & Co. KG, priority 2009, dated 2015)
# Experiments:
# Type in all cases: biochemical
# [1] = molecular target: T1, calpain-I isolated from human erythrocytes (Homo sapiens, UniProt P07384); test: Calpain I enzyme inhibition in vitro (kinetic fluorescence assay); details: apparent Ki from IC50 (Cheng-Prussoff); 20 nM calpain-I, 100 μM Suc-Leu-Tyr-AMC, pH 7.3, room temperature
# T1 construct: calpain-I—isolated from human erythrocytes; purchased Calbiochem 208713; host or cells: human erythrocytes (tissue-derived)
# T1 sequence (P07384 1-714): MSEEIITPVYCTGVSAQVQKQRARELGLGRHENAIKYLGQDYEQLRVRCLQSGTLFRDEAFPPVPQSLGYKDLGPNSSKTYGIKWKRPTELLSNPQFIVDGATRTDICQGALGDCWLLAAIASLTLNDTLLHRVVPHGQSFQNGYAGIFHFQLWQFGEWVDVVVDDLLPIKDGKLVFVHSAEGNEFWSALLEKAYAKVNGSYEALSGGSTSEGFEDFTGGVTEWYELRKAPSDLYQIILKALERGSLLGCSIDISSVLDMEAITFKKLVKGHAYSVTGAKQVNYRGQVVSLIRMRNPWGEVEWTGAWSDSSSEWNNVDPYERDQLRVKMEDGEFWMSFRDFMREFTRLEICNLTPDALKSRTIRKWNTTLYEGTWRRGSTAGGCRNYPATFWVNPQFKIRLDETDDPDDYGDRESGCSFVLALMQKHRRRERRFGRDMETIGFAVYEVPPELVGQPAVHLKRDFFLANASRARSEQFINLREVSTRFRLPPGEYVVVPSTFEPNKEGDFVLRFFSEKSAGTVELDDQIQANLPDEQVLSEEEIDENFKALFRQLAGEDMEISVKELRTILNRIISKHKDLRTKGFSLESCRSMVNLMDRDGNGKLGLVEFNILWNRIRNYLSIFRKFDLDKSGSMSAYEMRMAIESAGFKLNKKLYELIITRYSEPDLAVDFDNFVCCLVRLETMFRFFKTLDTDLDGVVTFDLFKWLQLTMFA
# T1 sequence (P04632 1-268 partner): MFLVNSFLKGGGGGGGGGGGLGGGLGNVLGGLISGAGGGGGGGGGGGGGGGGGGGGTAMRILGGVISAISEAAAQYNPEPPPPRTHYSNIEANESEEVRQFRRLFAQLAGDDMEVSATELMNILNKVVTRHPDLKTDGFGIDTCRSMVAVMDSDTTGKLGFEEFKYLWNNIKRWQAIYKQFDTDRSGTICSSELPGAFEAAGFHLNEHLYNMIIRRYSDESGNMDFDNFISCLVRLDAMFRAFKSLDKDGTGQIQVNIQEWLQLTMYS
# Method in brief: (§1)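 Kinetic AMC fluorescence (ex 390/em 460 nm), room temperature. Calpain-I 20 nM, 100 μM Suc-Leu-Tyr-AMC, imidazole/CaCl2 pH 7.3; cathepsins B 0.25 nM/100 μM Z-Phe-Arg-AMC, K 3 nM/10 μM Z-Gly-Pro-Arg-AMC, S 0.5 nM/20 μM Z-Val-Val-Arg-AMC, each MES/EDTA/cysteine pH 6.0. Ki from IC50 via Cheng-Prusoff, averaging 2–4 curves.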
# [2] = molecular target: T2, cathepsin B isolated from human liver (Homo sapiens, UniProt P07858); test: Cathepsin B enzyme inhibition in vitro (kinetic fluorescence assay); details: Ki(cathepsin B)/Ki(calpain) ratio
# T2 construct: cathepsin B—isolated from human liver; purchased Calbiochem 219362; host or cells: human liver (tissue-derived)
# Method in brief: as §1
# [3] = molecular target: T3, cathepsin K activated from recombinant human procathepsin K (Homo sapiens, UniProt P43235); test: Cathepsin K enzyme inhibition in vitro (kinetic fluorescence assay); details: Ki(cathepsin K)/Ki(calpain) ratio
# T3 construct: purchased Calbiochem 342001; host or cells: E. coli
# T3 sequence (P43235 115-329): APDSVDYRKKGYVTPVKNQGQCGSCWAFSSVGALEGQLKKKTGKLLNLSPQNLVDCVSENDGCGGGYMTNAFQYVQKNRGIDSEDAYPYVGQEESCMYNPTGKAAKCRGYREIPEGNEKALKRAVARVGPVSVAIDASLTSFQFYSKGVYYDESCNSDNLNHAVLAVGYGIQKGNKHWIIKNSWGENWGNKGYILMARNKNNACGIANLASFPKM
# Method in brief: as §1
# [4] = molecular target: T4, cathepsin L isolated from human liver (Homo sapiens, UniProt P07711); test: Cathepsin L enzyme inhibition in vitro (kinetic fluorescence assay); details: Ki(cathepsin L)/Ki(calpain) ratio
# T4 construct: cathepsin L—isolated from human liver; purchased Calbiochem 219402; host or cells: human liver (tissue-derived)
# T4 sequence (P07711 114-333): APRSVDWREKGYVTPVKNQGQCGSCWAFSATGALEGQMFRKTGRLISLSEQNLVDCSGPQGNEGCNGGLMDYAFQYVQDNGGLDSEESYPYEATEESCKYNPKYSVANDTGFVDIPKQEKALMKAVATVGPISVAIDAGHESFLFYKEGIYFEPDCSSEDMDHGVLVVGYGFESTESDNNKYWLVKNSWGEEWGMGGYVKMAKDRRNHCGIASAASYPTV
# Description: Testing for blockade of the corresponding enzymic activities was carried out by means of kinetic fluorescence assays (excitation 390 nm, emission 460 nm).
# Apparent Ki values were calculated from the experimentally determined IC50 values by the Cheng-Prussoff relation assuming a reversible competitive enzyme inhibition. The Km values of the substrates used under the assay conditions indicated above were: 90 μM (Z-Phe-Arg-AMC, cathepsin B), 10 μM (Z-Gly-Pro-Arg-AMC, cathepsin K), 2 μM (Z-Phe-Arg-AMC, cathepsin L), and 30 μM (Z-Val-Val-Arg-AMC, cathepsin S).
# The indicated Ki values are averages of the inhibition constants calculated on the basis of 2 to 4 independent dose-effect plots.
# • 20 nM calpain-I—isolated from human erythrocytes (Calbiochem #208713), 100 μM Suc-Leu-Tyr-AMC (Bachem #I-1355) as substrate in buffer with 62 mM imidazole, 0.3 mM CaCl2, 0.10% CHAPS, 0.05% BSA, 1 mM DTT at pH 7.3 and room temperature. 1. Cathepsin B: • 0.25 nM cathepsin B—isolated from human liver (Calbiochem #219362), 100 μM Z-Phe-Arg-AMC (Bachem #I-1160) as substrate 50 mM MES, 2 mM EDTA, 0.05% Brij 35, 2.5 mM L-cysteine, pH 6.0, room temperature. 3. Cathepsin K: • 3 nM cathepsin K activated from recombinant human procathepsin K from E. coli (Calbiochem #342001), 10 μM Z-Gly-Pro-Arg-AMC (Biomol #P-142) as substrate in 50 mM MES, 2 mM EDTA, 0.05% Brij 35, 2.5 mM L-cysteine, pH 6.0, room temperature. 4. Cathepsin L: • 1 nM cathepsin L—isolated from human liver (Calbiochem #219402), 2 μM Z-Phe-Arg-AMC (Bachem #I-1160) as substrate in 50 mM MES, 2 mM EDTA, 0.05% Brij 35, 2.5 mM L-cysteine, pH 6.0, room temperature. 5. Cathepsin S: • 0.5 nM recombinant human cathepsin S from E. coli (Calbiochem #219343), 20 μM Z-Val-Val-Arg-AMC (Bachem #I-1540) as substrate in 50 mM MES, 2 mM EDTA, 0.05% Brij 35, 2.5 mM L-cysteine, pH 6.0, room temperature.
# [5] = molecular target: T5, recombinant human cathepsin S (Homo sapiens, UniProt P25774); test: Cathepsin S enzyme inhibition in vitro (kinetic fluorescence assay); details: Ki(cathepsin S)/Ki(calpain) ratio
# T5 construct: purchased Calbiochem 219343; host or cells: E. coli
# T5 sequence (P25774 115-331): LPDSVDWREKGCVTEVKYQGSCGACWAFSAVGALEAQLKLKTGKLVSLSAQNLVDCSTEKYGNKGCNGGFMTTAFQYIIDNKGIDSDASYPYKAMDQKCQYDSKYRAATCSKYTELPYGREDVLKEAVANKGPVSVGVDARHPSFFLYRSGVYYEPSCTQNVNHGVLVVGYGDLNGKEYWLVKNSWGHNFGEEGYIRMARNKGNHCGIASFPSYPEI
# Method in brief: as §1
SMILES,Ki [1],Sel cat. L [4],Sel cat. B [2],Sel cat. K [3],Sel cat. S [5]
"O=C(NCc1ccc2c(c1)OCO2)C(=O)C(Cc1ccccc1)NC(=O)[C@H]1CCC(=O)N1Cc1ccccc1 (mixture of isomers) [Example 66, (2R)—N-(4-(Benzo[d][1,3]-dioxol-5-ylmethylamino)-3,4-dioxo-1-phenylbutan-2-yl)-1-benzyl-5-oxopyrrolidine-2-carboxamide]",50 to 100 nM,++ (10<Ki(cathepsin B)/Ki(calpain)≦30),+++ (Ki(cathepsin B)/Ki(calpain) ratio of >30),++ (10<Ki(cathepsin B)/Ki(calpain)≦30),+++ (Ki(cathepsin S)/Ki(calpain) ratio of >100)
"O=C(NCc1ccncc1)C(=O)C(Cc1ccccc1)NC(=O)[C@H]1CCC(=O)N1Cc1ccccc1 (mixture of isomers) [Example 63, (2R)-1-Benzyl-N-(3,4-dioxo-1-phenyl-4-(pyridin-4-ylmethylamino)butan-2-yl)-5-oxopyrrolidine-2-carboxamide]",50 to 100 nM,+++ (Ki(cathepsin L)/Ki(calpain) ratio of >30),+++ (Ki(cathepsin B)/Ki(calpain) ratio of >30),+++ (Ki(cathepsin K)/Ki(calpain) ratio of >30),+++ (Ki(cathepsin S)/Ki(calpain) ratio of >100)
"NC(=O)C(=O)C(Cc1ccccc1)NC(=O)[C@H]1CCC(=O)N1Cc1c(F)cccc1F (stereo partly drawn) [Example 51, (2R)—N-(4-Amino-3,4-dioxo-1-phenylbutan-2-yl)-5-oxo-1-(2,6-difluorobenzyl)-pyrrolidine-2-carboxamide]",50 to 100 nM,++ (10<Ki(cathepsin B)/Ki(calpain)≦30),++ (10<Ki(cathepsin B)/Ki(calpain)≦30),+++ (Ki(cathepsin K)/Ki(calpain) ratio of >30),+++ (Ki(cathepsin S)/Ki(calpain) ratio of >100)
"CCNC(=O)C(=O)C(Cc1ccccc1)NC(=O)[C@H]1CCC(=O)N1Cc1c(Cl)cccc1Cl (mixture of isomers) [Example 62, (2R)-1-(2,6-Dichlorobenzyl)-N-(4-(ethylamino)-3,4-dioxo-1-phenylbutan-2-yl)-5-oxopyrrolidine-2-carboxamide]",100 to 600 nM,++ (10<Ki(cathepsin B)/Ki(calpain)≦30),++ (10<Ki(cathepsin B)/Ki(calpain)≦30),++ (10<Ki(cathepsin B)/Ki(calpain)≦30),++ (30<Ki(cathepsin B)/Ki(calpain)≦100)
"CCNC(=O)C(=O)C(Cc1ccccc1)NC(=O)[C@H]1CCC(=O)N1Cc1ccccc1Cl (mixture of isomers) [Example 47, (2R)-1-(2-Chlorobenzyl)-N-(4-(ethylamino)-3,4-dioxo-1-phenylbutan-2-yl)-5-oxopyrrolidine-2-carboxamide]",100 to 600 nM,+++ (Ki(cathepsin L)/Ki(calpain) ratio of >30),+++ (Ki(cathepsin B)/Ki(calpain) ratio of >30),+++ (Ki(cathepsin K)/Ki(calpain) ratio of >30),++ (30<Ki(cathepsin B)/Ki(calpain)≦100)
"O=C(NC1CC1)C(=O)C(Cc1ccccc1)NC(=O)[C@H]1CCC(=O)N1Cc1ccccc1Cl (mixture of isomers) [Example 46, (2R)-1-(2-Chlorobenzyl)-N-(4-(cyclopropylamino)-3,4-dioxo-1-phenylbutan-2-yl)-5-oxopyrrolidine-2-carboxamide]",50 to 100 nM,+++ (Ki(cathepsin L)/Ki(calpain) ratio of >30),++ (10<Ki(cathepsin B)/Ki(calpain)≦30),+++ (Ki(cathepsin K)/Ki(calpain) ratio of >30),+++ (Ki(cathepsin S)/Ki(calpain) ratio of >100)

# Second part, led by results:
Ki [1],Sel cat. L [4],SMILES,Sel cat. B [2],Sel cat. K [3],Sel cat. S [5]
< 50 nM,++ (10<Ki(cathepsin B)/Ki(calpain)≦30),"NC(=O)C(=O)C(Cc1ccccc1)NC(=O)[C@H]1CCC(=O)N1Cc1cccc(Cl)c1 (stereo partly drawn) [Example 3, (2R)—N-(4-Amino-3,4-dioxo-1-phenylbutan-2-yl)-1-(3-chlorobenzyl)-5-oxopyrrolidine-2-carboxamide]",++ (10<Ki(cathepsin B)/Ki(calpain)≦30),+++ (Ki(cathepsin K)/Ki(calpain) ratio of >30),+++ (Ki(cathepsin S)/Ki(calpain) ratio of >100)
50 to 100 nM,++ (10<Ki(cathepsin B)/Ki(calpain)≦30),"NC(=O)C(=O)C(Cc1ccccc1)NC(=O)[C@H]1CCC(=O)N1Cc1cccc(F)c1 (stereo partly drawn) [Example 8, (2R)—N-(4-Amino-3,4-dioxo-1-phenylbutan-2-yl)-1-(3-fluorobenzyl)-5-oxopyrrolidine-2-carboxamide]",+++ (Ki(cathepsin B)/Ki(calpain) ratio of >30),++ (10<Ki(cathepsin B)/Ki(calpain)≦30),+++ (Ki(cathepsin S)/Ki(calpain) ratio of >100)
